In patent publication US10065950B2, “Substituted thiazoles as HIV integrase inhibitors” (Japan Tobacco Inc., priority 2010, dated 2018):

What follows are compounds tested against HIV-1 pNL4-3 integrase (Human immunodeficiency virus type 1 group M subtype B (isolate NY5) (HIV-1), UniProt P12497) (assay: Determination of enzyme (HIV integrase) inhibitory activity). Details: calculated from inhibition rate (fluorescence).
Format: biochemical
How it was run: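 Full-length pNL4-3 integrase from E. coli (0.75 μM stock) reacted 60 min at 37° C with compound and biotinylated donor DNA bound to streptavidin plates, in MOPS buffer with 5 mM MgCl2 and 10% DMSO. Digoxigenin-labelled target DNA (25 nM stock) then added for 20 min; strand transfer read by peroxidase anti-digoxigenin fluorescence (Ex 325/Em 420 nm).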
`CCN1C(=O)c2c(O)c(=O)c(-c3nnc(Cc4ccc(F)cc4)s3)cn2[C@H](C)[C@H]1COC` [Example 305] showed an IC50 of 9.5 nM. With `CC(C)N1C(=O)c2c(O)c(=O)c(-c3nnc(Cc4ccc(F)cc4)s3)cn2C[C@@]1(C)C(=O)N1CCCC1` [Example 306] the IC50 was 10 nM. `CCNC(=O)[C@]1(C)Cn2cc(-c3nnc(Cc4ccc(F)cc4)s3)c(=O)c(O)c2C(=O)N1C(C)C` [Example 307] was tested, and the IC50 was 11 nM. For `CC(C)NC(=O)[C@]1(C)Cn2cc(-c3nnc(Cc4ccc(F)cc4)s3)c(=O)c(O)c2C(=O)N1C(C)C` [Example 308], the IC50 was 13 nM. In the case of `CC(C)N1C(=O)c2c(O)c(=O)c(-c3nnc(Cc4ccc(F)cc4)s3)cn2C[C@@]1(C)C(=O)NC(C)(C)C` [Example 309], the IC50 is reported as 8.8 nM. `CC(C)N1C(=O)c2c(O)c(=O)c(-c3nnc(Cc4ccc(F)cc4)s3)cn2C[C@@]1(C)C(=O)N1CCC1` [Example 310] gave an IC50 of 9.9 nM. With `CC(C)N1C(=O)c2c(O)c(=O)c(-c3nnc(Cc4ccc(F)cc4)s3)cn2C[C@@]1(C)C(=O)N1CCOCC1` [Example 311] the IC50 was 9.7 nM. `CC(C)N1C(=O)c2c(O)c(=O)c(-c3nnc(Cc4ccc(F)cc4)s3)cn2C[C@@]1(C)C(=O)O` [Example 312] was tested, and the IC50 was 12 nM. `CN(C)C(=O)[C@@]1(C)CN(C)C(=O)c2c(O)c(=O)c(-c3nnc(Cc4ccc(F)cc4)s3)cn21` [Example 313] gave an IC50 of 9.7 nM. `CN(C)C(=O)[C@@]1(C)CN(C)C(=O)c2c(O)c(=O)c(-c3ncc(Cc4ccc(F)cc4)s3)cn21` [Example 314] was tested, and the IC50 was 7.9 nM. `CC(C)N1C(=O)c2c(O)c(=O)c(-c3nnc(Cc4ccc(F)cc4)s3)cn2C[C@@]1(C)C(=O)N(C)C` [Example 315] was tested, and the IC50 was 8.8 nM. Work on `COC[C@H]1CN([C@@H](C)C2CC2)C(=O)c2c(O)c(=O)c(-c3nnc(Cc4ccc(F)cc4)s3)cn21` [Example 316] yielded an IC50 of 12 nM. `COC[C@@H]1Cn2cc(-c3nnc(CCc4ccc(F)cc4F)s3)c(=O)c(O)c2C(=O)N1C(C)C` [Example 317] gave an IC50 of 9.8 nM. With `CCN1C(=O)c2c(O)c(=O)c(-c3nnc(Cc4ccc(F)cc4)s3)cn2C[C@]1(C)COC` [Example 318] the IC50 was 6.5 nM. `CCN1C(=O)c2c(O)c(=O)c(-c3nnc(Cc4ccc(F)cc4F)s3)cn2CC1(COC)COC` [Example 319] was tested, and the IC50 was 5.8 nM. Work on `COCC1(COC)Cn2cc(-c3nnc(Cc4ccc(F)cc4)s3)c(=O)c(O)c2C(=O)N1C(C)C` [Example 320] yielded an IC50 of 9.4 nM. Compound `CC(C)N1C(=O)c2c(O)c(=O)c(-c3nnc(Cc4ccc(F)cc4F)s3)cn2C[C@@]1(C)C(=O)N(C)C` [Example 321] has an IC50 of 7 nM. In the case of `CCN1C(=O)c2c(O)c(=O)c(-c3nnc(Cc4ccc(F)cc4)s3)cn2C[C@]1(C)COCCOC` [Example 323], the IC50 is reported as 14 nM. `CC[C@@H]1Cn2cc(-c3ncc(Cc4ccc(F)cc4)s3)c(=O)c(O)c2C(=O)N1CC` [Example 327] gave an IC50 of 5.9 nM. For `CCN1C(=O)c2c(O)c(=O)c(-c3nnc(Cc4ccc(F)cc4)s3)cn2C[C@H]1C` [Example 328], the IC50 was 7.1 nM. `CCN1C(=O)c2c(O)c(=O)c(-c3ncc(Cc4ccc(F)cc4)s3)cn2C[C@H]1C(C)C` [Example 329] gave an IC50 of 6.1 nM. `CCN1C(=O)c2c(O)c(=O)c(-c3ncc(Cc4ccc(F)cc4)s3)cn2C[C@H]1C` [Example 330] gave an IC50 of 6.4 nM. For `CCN(C)C(=O)[C@]1(C)Cn2cc(-c3nnc(Cc4ccc(F)cc4)s3)c(=O)c(O)c2C(=O)N1C(C)C` [Example 331], the IC50 was 9.3 nM. Compound `CCN1C(=O)c2c(O)c(=O)c(-c3nnc(Cc4ccc(F)cc4)s3)cn2C[C@H]1[C@H](C)OC` [Example 332] has an IC50 of 12 nM. `CCN1C(=O)c2c(O)c(=O)c(-c3ncc(Cc4ccc(F)cc4)s3)cn2C[C@H]1[C@H](C)OC` [Example 333] showed an IC50 of 7.5 nM. With `CO[C@@H](C)[C@@H]1Cn2cc(-c3nnc(Cc4ccc(F)cc4)s3)c(=O)c(O)c2C(=O)N1C(C)C` [Example 334] the IC50 was 9.1 nM. With `CN(C)C(=O)[C@@]1(C)CN(C)C(=O)c2c(O)c(=O)c(-c3nnc(Cc4ccc(F)cc4F)s3)cn21` [Example 335] the IC50 was 9.8 nM. Compound `CN(C)C(=O)[C@@]1(C)CN(C)C(=O)c2c(O)c(=O)c(-c3ncc(Cc4ccc(F)cc4F)s3)cn21` [Example 336] has an IC50 of 7.2 nM. In the case of `CCC(CC)N1C[C@H](COC)n2cc(-c3nnc(Cc4ccc(F)cc4)s3)c(=O)c(O)c2C1=O` [Example 337], the IC50 is reported as 17 nM. For `CO[C@H](C)[C@@H]1CN(C(C)C)C(=O)c2c(O)c(=O)c(-c3nnc(Cc4ccc(F)cc4)s3)cn21` [Example 338], the IC50 was 7.1 nM. For `COC[C@H]1[C@@H](C)n2cc(-c3nnc(Cc4ccc(F)cc4)s3)c(=O)c(O)c2C(=O)N1C(C)C` [Example 353], the IC50 was 13 nM. `CC(C)N1C(=O)c2c(O)c(=O)c(-c3nnc(Cc4ccc(F)cc4)s3)cn2C[C@H]1CO` [Example 354] was tested, and the IC50 was 8 nM. `CCN1C(=O)c2c(O)c(=O)c(-c3nnc(Cc4ccc(F)cc4)s3)cn2CC1(C)C` [Example 355] was tested, and the IC50 was 6.6 nM. `COC[C@@H]1[C@H](C)N(C(C)C)C(=O)c2c(O)c(=O)c(-c3nnc(Cc4ccc(F)cc4)s3)cn21` [Example 356] was tested, and the IC50 was 8.9 nM. With `CCCN1C[C@H](COCC)n2cc(-c3nnc(Cc4ccc(F)cc4)s3)c(=O)c(O)c2C1=O` [Example 357] the IC50 was 7.3 nM. Work on `CC(C)N1C[C@H](Cn2cncn2)n2cc(-c3nnc(Cc4ccc(F)cc4)s3)c(=O)c(O)c2C1=O` [Example 358] yielded an IC50 of 12 nM. Work on `CC(C)N1C[C@H](Cn2cnnn2)n2cc(-c3nnc(Cc4ccc(F)cc4)s3)c(=O)c(O)c2C1=O` [Example 359] yielded an IC50 of 4.8 nM. `CC(C)N1C[C@H](CS(=O)(=O)C(C)(C)C)n2cc(-c3nnc(Cc4ccc(F)cc4)s3)c(=O)c(O)c2C1=O` [Example 360] showed an IC50 of 11 nM. `CCOC[C@H]1CN(C(C)(C)C)C(=O)c2c(O)c(=O)c(-c3nnc(Cc4ccc(F)cc4)s3)cn21` [Example 361] gave an IC50 of 15 nM. `CCCCN1C[C@H](COCCOC)n2cc(-c3nnc(Cc4ccc(F)cc4)s3)c(=O)c(O)c2C1=O` [Example 362] showed an IC50 of 10 nM. `CCCOC[C@H]1CN(C(C)C)C(=O)c2c(O)c(=O)c(-c3nnc(Cc4ccc(F)cc4)s3)cn21` [Example 363] gave an IC50 of 8.7 nM. For `CCCCOC[C@H]1CN(C(C)C)C(=O)c2c(O)c(=O)c(-c3nnc(Cc4ccc(F)cc4)s3)cn21` [Example 364], the IC50 was 10 nM. Compound `CC(C)OC[C@H]1CN(C(C)C)C(=O)c2c(O)c(=O)c(-c3nnc(Cc4ccc(F)cc4)s3)cn21` [Example 365] has an IC50 of 12 nM. `CCC(OC)[C@H]1CN(C(C)C)C(=O)c2c(O)c(=O)c(-c3nnc(Cc4ccc(F)cc4)s3)cn21` (stereo partly shown) [Example 382] gave an IC50 of 8.7 nM. `CCC(OC)[C@H]1CN(C(C)C)C(=O)c2c(O)c(=O)c(-c3nnc(Cc4ccc(F)cc4)s3)cn21` (stereo partly shown) [Example 383] was tested, and the IC50 was 7.9 nM. For `CO[C@@H](C)COC[C@H]1CN(C2CC2)C(=O)c2c(O)c(=O)c(-c3nnc(Cc4ccc(F)cc4)s3)cn21` [Example 384], the IC50 was 12 nM. In the case of `CO[C@@H](C)COC[C@H]1CN(C(C)C)C(=O)c2c(O)c(=O)c(-c3nnc(Cc4ccc(F)cc4)s3)cn21` [Example 385], the IC50 is reported as 8.2 nM. `CO[C@H](C)[C@H]1CN(C(C)C)C(=O)c2c(O)c(=O)c(-c3ncc(Cc4ccc(F)cc4)s3)cn21` [Example 386] showed an IC50 of 15 nM. Compound `CO[C@H](C)[C@@H]1CN(C(C)C)C(=O)c2c(O)c(=O)c(-c3ncc(Cc4ccc(F)cc4)s3)cn21` [Example 387] has an IC50 of 11 nM. `CO[C@@H](C)[C@H]1CN(C(C)C)C(=O)c2c(O)c(=O)c(-c3ncc(Cc4ccc(F)cc4)s3)cn21` [Example 388] showed an IC50 of 8.6 nM. Compound `CCO[C@H](CC)[C@H]1CN(C(C)C)C(=O)c2c(O)c(=O)c(-c3nnc(Cc4ccc(F)cc4)s3)cn21` [Example 389] has an IC50 of 14 nM. In the case of `COCCOC[C@@]1(C(=O)N(C)C)CN(C(C)C)C(=O)c2c(O)c(=O)c(-c3nnc(Cc4ccc(F)cc4)s3)cn21` [Example 391], the IC50 is reported as 24 nM. In the case of `CC[C@]1(C(=O)N2CCC2)CN(C(C)C)C(=O)c2c(O)c(=O)c(-c3nnc(Cc4ccc(F)cc4)s3)cn21` [Example 392], the IC50 is reported as 11 nM. `CCNC(=O)[C@]1(COC)CN(C(C)C)C(=O)c2c(O)c(=O)c(-c3ncc(Cc4ccc(F)cc4)s3)cn21` [Example 393] gave an IC50 of 15 nM. `CCNC(=O)[C@]1(COCCOC)CN(C(C)C)C(=O)c2c(O)c(=O)c(-c3ncc(Cc4ccc(F)cc4)s3)cn21` [Example 394] showed an IC50 of 14 nM. Work on `CCN1C(=O)c2c(O)c(=O)c(-c3nnc(Cc4ccc(F)cc4)s3)cn2C[C@@H]1[C@@H](C)OC` [Example 395] yielded an IC50 of 10 nM. Work on `CCN(C)C(=O)[C@]1(COC)CN(C(C)C)C(=O)c2c(O)c(=O)c(-c3nnc(Cc4ccc(F)cc4)s3)cn21` [Example 396] yielded an IC50 of 15 nM. With `CCN(C)C(=O)[C@]1(COCCOC)CN(C(C)C)C(=O)c2c(O)c(=O)c(-c3nnc(Cc4ccc(F)cc4)s3)cn21` [Example 397] the IC50 was 19 nM.
